Data set [1] has as its target Cholinesterase (Equus caballus) (UniProt P81908). The experiment in a line: Inhibition of equine serum BChE using butyrylthiocholine iodide as substrate at 10^-4 M preincubated for 15 mins followed by substrate addition and measured for 5 mins by Ellmans method. For orientation: Ellman's reagent forms a yellow product with free thiols.
Data set [2] shares this target. The experiment in a line: Inhibition of equine serum BChE using butyrylthiocholine iodide as substrate at 10^-3 M preincubated for 15 mins followed by substrate addition and measured for 5 mins by Ellmans method.
The next data set deals with Acetylcholinesterase (Electrophorus electricus, UniProt O42275). The experiment in a line: Inhibition of electric eel AChE using acetylthiocholine iodide as substrate preincubated for 15 mins followed by substrate addition and measured for 5 mins by Ellmans method.
Acetylcholinesterase, sequence (O42275 whole entry): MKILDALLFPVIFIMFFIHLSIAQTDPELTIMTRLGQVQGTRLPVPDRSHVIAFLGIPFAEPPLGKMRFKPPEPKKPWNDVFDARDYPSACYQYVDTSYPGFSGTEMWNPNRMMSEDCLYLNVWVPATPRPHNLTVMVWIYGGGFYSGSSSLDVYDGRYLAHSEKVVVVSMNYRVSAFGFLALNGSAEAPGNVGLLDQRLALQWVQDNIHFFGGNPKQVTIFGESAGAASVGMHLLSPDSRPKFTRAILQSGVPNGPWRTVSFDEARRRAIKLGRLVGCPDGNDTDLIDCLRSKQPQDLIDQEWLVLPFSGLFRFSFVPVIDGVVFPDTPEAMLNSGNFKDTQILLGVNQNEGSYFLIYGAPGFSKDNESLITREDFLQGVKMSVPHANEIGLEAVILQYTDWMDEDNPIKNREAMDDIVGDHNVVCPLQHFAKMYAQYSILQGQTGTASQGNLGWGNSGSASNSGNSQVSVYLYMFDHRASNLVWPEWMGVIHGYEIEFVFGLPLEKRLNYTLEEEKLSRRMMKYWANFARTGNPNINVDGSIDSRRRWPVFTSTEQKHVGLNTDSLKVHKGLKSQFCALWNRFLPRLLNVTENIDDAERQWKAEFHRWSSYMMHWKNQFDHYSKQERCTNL
A short description of data set [3]: Selectivity index, ratio of IC50 for mouse NIH/3T3 cells to IC50 for electric eel AChE.
Data set [4] is described as follows: Cytotoxicity against mouse NIH/3T3 cells after 24 hrs by MTT assay. In kind it is toxicity, NIH3T3. Background: Formazan colour is commonly taken as a measure of viable cells.

Structures are written as SMILES.

A word on the inhibition: it is the relative decrease from the control value, in per cent. High values mean strong suppression, low ones little suppression. For orientation: IC50 means the concentration that inhibits the measured activity by half.

Cholinesterase (Equus caballus), sequence (P81908 whole entry): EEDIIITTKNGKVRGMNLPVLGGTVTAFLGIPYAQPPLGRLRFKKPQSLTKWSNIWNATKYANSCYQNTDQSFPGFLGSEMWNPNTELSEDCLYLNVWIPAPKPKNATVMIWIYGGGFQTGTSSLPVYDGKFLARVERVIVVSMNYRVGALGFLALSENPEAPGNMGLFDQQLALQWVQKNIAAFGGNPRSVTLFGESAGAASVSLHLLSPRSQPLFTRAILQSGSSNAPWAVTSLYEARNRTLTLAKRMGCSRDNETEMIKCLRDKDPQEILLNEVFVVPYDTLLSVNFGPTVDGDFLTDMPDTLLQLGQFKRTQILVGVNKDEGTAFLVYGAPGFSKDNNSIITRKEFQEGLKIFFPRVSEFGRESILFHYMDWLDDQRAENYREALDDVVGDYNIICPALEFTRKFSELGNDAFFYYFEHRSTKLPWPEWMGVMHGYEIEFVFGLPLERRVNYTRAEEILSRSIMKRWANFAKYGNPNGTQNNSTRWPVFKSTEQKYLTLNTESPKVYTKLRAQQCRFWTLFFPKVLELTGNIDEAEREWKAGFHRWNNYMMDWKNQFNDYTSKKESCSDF

With `COc1cc2c(cc1OC)C(=O)C(CC1CCN(CC(=O)Nc3ccccc3)CC1)C2` (configuration not stated), the inhibition in data set [1] is 2.58%; in data set [2], 5%.

Take `COc1ccc2c(c1)C/C(=C/c1ccc(N3CCCC3)cc1)C2=O`: the inhibition in data set [1] came to 1.25%; in data set [2] it was 3.08%.

With `CCN1CCN(c2ccc(/C=C3/Cc4cc(OC)ccc4C3=O)cc2)CC1`, the inhibition in data set [1] turned out to be 8.77%; in data set [2], 15.1%.

Regarding `CCN(CC)c1ccc(/C=C2/Cc3cc(OC)c(OC)cc3C2=O)cc1`, the figures for the inhibition in data set [1] and in data set [2] were 1.96% and 3.76%, respectively.

As to `COc1ccc(NC(=O)CN2CCC(CC3Cc4cc(OC)c(OC)cc4C3=O)CC2)cc1OC` (configuration not stated), the inhibition in data set [1] was 1.29%; in data set [2] it was 5.85%.

Take `COc1cc2c(cc1OC)C(=O)C(CC1CCN(CC(=O)Nc3nc4ccc(Cl)cc4s3)CC1)C2` (configuration not stated): the inhibition in data set [1] worked out at 3.09%; in data set [2], 6.21%.

Turning to `COc1cc2c(cc1OC)C(=O)C(CC1CCN(CC(=O)Nc3ccc(Cl)cc3)CC1)C2` (configuration not stated), the inhibition worked out at 2.77% in data set [1] and 5.39% in data set [2].

As to `COc1ccc2c(c1)C/C(=C/c1ccc(N3CCN(c4ccccc4)CC3)cc1)C2=O`, the inhibition in data set [1] worked out at 2.38%; in data set [2], 5.2%.

Take `COc1ccc2c(c1)C(=O)/C(=C\c1ccc(N3CCN(CCO)CC3)cc1)C2`: the results for the inhibition in data set [1] and in data set [2] were 1.25% and 3.45%, respectively.

Take `COc1cc2c(cc1OC)C(=O)C(CC1CCN(CC(=O)Nc3nc4ccc([N+](=O)[O-])cc4s3)CC1)C2` (configuration not stated): the inhibition in data set [1] was 1.13%; in data set [2], 4.18%.

For the molecule `COc1cc2c(cc1OC)C(=O)C(CC1CCN(CC(=O)Nc3ccc(F)cc3)CC1)C2` (configuration not stated), the inhibition in data set [1] was determined as 1.99%; in data set [2], 4.75%.

Turning to `COc1cc2c(cc1OC)C(=O)/C(=C\c1ccc(N3CCN(c4ccccc4)CC3)cc1)C2`, the inhibition in data set [1] came out at 1.08%; in data set [2], 3.22%.

For the molecule `COc1cc2c(cc1OC)C(=O)C(CC1CCN(CC(=O)Nc3nc4cc(OC)c(OC)cc4s3)CC1)C2` (configuration not stated), the inhibition in data set [1] was 2.05%; in data set [2], 3.77%.

For the molecule `COc1ccc2c(c1)C/C(=C/c1ccc(N3CCN(C)CC3)cc1)C2=O`, the inhibition in data set [1] stood at 7.56%; in data set [2], 12.9%.

On to `COc1cc2c(cc1OC)C(=O)/C(=C\c1ccc(N3CCN(C)CC3)cc1)C2`, for which the inhibition was found to be 8.55% in data set [1] and 19.2% in data set [2].

Take `COc1cc2c(cc1OC)C(=O)C(CC1CCN(CC(=O)Nc3ccc([N+](=O)[O-])cc3)CC1)C2` (configuration not stated): the inhibition in data set [1] was found to be 2.69%; in data set [2] it was 4.88%.

In the case of `COc1ccc2c(c1)C/C(=C/c1ccc(N3CCN(CCO)CC3)cc1)C2=O`, the inhibition in data set [1] was 5.91%; in data set [2] it was 7.63%.

With `COc1cc2c(cc1OC)C(=O)/C(=C\c1ccc(N3CCN(CCN(C)C)CC3)cc1)C2`, the IC50 against Acetylcholinesterase turned out to be 6.38 µM. For the same molecule, the inhibition came to 12.1% in data set [1] and 17% in data set [2]. Besides, the “Ratio IC50” value in data set [3] was 50. This molecule displayed an IC50 at 24 h in data set [4] of 320 µM.

For the molecule `COc1ccc(NC(=O)CN2CCC(CC3Cc4cc(OC)c(OC)cc4C3=O)CC2)cc1` (configuration not stated), the inhibition worked out at 1.33% in data set [1] and 4.28% in data set [2].

`COc1cc2c(cc1OC)C(=O)/C(=C\c1ccc(N3CCN(CCCN(C)C)CC3)cc1)C2`: it took 4.89 µM to reach half-maximal inhibition against Acetylcholinesterase (IC50). In addition, the values for the inhibition in data set [1] and in data set [2] were 13.9% and 18.7%, respectively. Further, the IC50 at 24 h in data set [4] amounted to 78 µM.

`COc1cc2c(cc1OC)C(=O)/C(=C\c1ccc(N3CCN(CCO)CC3)cc1)C2`: the inhibition is 7.55% in data set [1] and 18.2% in data set [2].

For `COc1ccc2c(c1)C(=O)/C(=C\c1ccc(N3CCN(CCN(C)C)CC3)cc1)C2`, the figures for the inhibition in data set [1] and in data set [2] were 10.6% and 17.2%, respectively.

For the molecule `COc1cc2c(cc1OC)C(=O)C(CC1CCN(CC(=O)Nc3nc4ccc(F)cc4s3)CC1)C2` (configuration not stated), the figures for the inhibition in data set [1] and in data set [2] were 3.1% and 4.89%, respectively.

Take `COc1cc2c(cc1OC)C(=O)C(CC1CCN(CC(=O)Nc3nc4ccc(C)cc4s3)CC1)C2` (configuration not stated): the inhibition was 2.08% in data set [1] and 4.29% in data set [2].

Regarding `CCN(CC)c1ccc(/C=C2/Cc3ccc(OC)cc3C2=O)cc1`, the inhibition is 1.65% in data set [1] and 2.8% in data set [2].

For `COc1ccc2c(c1)C/C(=C/c1ccc(N3CCN(CCN(C)C)CC3)cc1)C2=O`, the results for the inhibition in data set [1] and in data set [2] were 9.56% and 15.2%, respectively.

As to `COc1ccc2c(c1)C(=O)/C(=C\c1ccc(N3CCN(C)CC3)cc1)C2`, the inhibition came out at 9.63% in data set [1] and 14.7% in data set [2].

Consider `COc1ccc2c(c1)C(=O)/C(=C\c1ccc(N3CCN(c4ccccc4)CC3)cc1)C2`, for which the values for the inhibition in data set [1] and in data set [2] were 1.06% and 1.73%, respectively.

`COc1cc2c(cc1OC)C(=O)/C(=C\c1ccc(N3CCCC3)cc1)C2`: the inhibition in data set [1] came out at 2.77%; in data set [2], 4.98%.

For the molecule `CCN(CC)c1ccc(/C=C2/Cc3cc(OC)ccc3C2=O)cc1`, the inhibition in data set [1] was determined as 5.27%; in data set [2], 10.3%.

For `COc1ccc2nc(NC(=O)CN3CCC(CC4Cc5cc(OC)c(OC)cc5C4=O)CC3)sc2c1` (configuration not stated), the results for the inhibition in data set [1] and in data set [2] were 3.19% and 5.33%, respectively.

Consider `CCN1CCN(c2ccc(/C=C3/Cc4ccc(OC)cc4C3=O)cc2)CC1`, for which the inhibition in data set [1] was 4.2%; in data set [2] it was 5.05%.

`COc1ccc2c(c1)C(=O)/C(=C\c1ccc(N3CCCC3)cc1)C2`: the inhibition in data set [1] amounted to 3.18%; in data set [2], 5.7%.

In the case of `COc1ccc2c(c1)C/C(=C/c1ccc(N3CCN(CCCN(C)C)CC3)cc1)C2=O`, at Acetylcholinesterase, the IC50 stood at 8.54 µM. The inhibition in data set [1] was found to be 11.3%; in data set [2] it was 16%. Moreover, the “Ratio IC50” value in data set [3] came to 27. In data set [4], this molecule had an IC50 at 24 h of 230 µM.

As for `CCN1CCN(c2ccc(/C=C3/Cc4cc(OC)c(OC)cc4C3=O)cc2)CC1`, the results for the inhibition in data set [1] and in data set [2] were 8.56% and 16.9%, respectively.

Consider `COc1cc2c(cc1OC)C(=O)C(CC1CCN(CC(=O)Nc3nc4ccccc4s3)CC1)C2` (configuration not stated), for which the inhibition in data set [1] was found to be 2.31%; in data set [2], 5.23%.

Consider `COc1cc2c(cc1OC)C(=O)C(CC1CCN(CC(=O)Nc3ccc(C)cc3)CC1)C2` (configuration not stated), for which the values for the inhibition in data set [1] and in data set [2] were 3.2% and 5.89%, respectively.

For the molecule `COc1ccc2c(c1)C(=O)/C(=C\c1ccc(N3CCN(CCCN(C)C)CC3)cc1)C2`, at Acetylcholinesterase, the IC50 was 6.06 µM. The inhibition was found to be 10.1% in data set [1] and 16.1% in data set [2]. Besides, the “Ratio IC50” value in data set [3] is 13. Further, it took 78 µM to reach half-maximal inhibition in data set [4] (IC50 at 24 h).

Source of the values: ChEMBL document CHEMBL3875179 (Eur J Med Chem, 2016).
